Data: patent publication US11266674B2, “Pharmaceutical composition for tumor treatment or prevention, method, and use thereof” (SICHUAN KELUN-BIOTECH BIOPHARMACEUTICAL CO., LTD., priority 2017, dated 2022)
Where “and” joins values, the source holds several entries; their conditions need not be identical. Identical values can stand only once.

Columns and labels:
[1] = test system: human hepatoma Hep3B-luc cells; assay: In vivo efficacy on orthotopic liver xenograft of human hepatoma Hep3B-luc cells in BALB/c nude mice; conditions: compound 1.5 mg/kg, Sorafenib 30 mg/kg, combination 1.5 + 30 mg/kg; for The average bioluminescence value of tumor (photons/sec) Day 0: Day 0, at grouping (baseline); for T/Cfluorescence (%) / T/Ctumor weight (%) / TGIfluorescence (%) / TGItumor weight (%) / The average bioluminescence value of tumor (photons/sec) Day 28 / Tumor weight: Day 28, p.o. every day
Description: This example aimed to evaluate the in vivo efficacy of the pharmaceutical combination of the present invention in a BALB/c nude mouse model with human hepatoma Hep3B-luc cell orthotopic xenografts.
(§1) Human hepatoma Hep3B-luc cells were cultured as a monolayer in vitro, and the culture conditions were EMEM culture medium supplemented with 10% Fetal Bovine Serum, and incubation in an incubator at 37° C. and 5% CO2. The cells were subcultured by treatment with routine trypsin-EDTA digestion twice a week. When cell saturation was 80-90%, the number met the requirement, and the cells were harvested and counted.
20 μl of the cell suspension (PBS:Matrigel=1:1) containing about 3×10^6 Hep3B-Luc cells was injected into the left lobe of the liver of BALB/c-nude mice.
(§2) 5 g of sodium carboxymethyl cellulose was weighed and placed in a 1000 mL wide-mouth bottle, 800 mL of ultrapure water was added, and the mixture was stirred to effect a solution, the volume of which was then filled up to 1000 mL, thereby obtaining the vehicle.
(§3) An appropriate amount of the 4′-thionucleoside phosphamide derivative compound in the present invention was weighed, a certain amount of the vehicle was added, and a uniform suspension was obtained after mixing.
(§4) An appropriate amount of Sorafenib was weighed, and dissolved by adding polyoxyethylene castor oil. Ethanol was added and evenly mixed, followed by addition of physiological saline, thereby obtaining a uniform suspension.
After inoculation, the tumor growth was assessed by real-time IVIS fluorescence imaging, and mice bearing a tumor with a bioluminescence value of about 1E+8 photons/sec were selected, and randomized into groups (10 mice per group). The dosing volume was 10 mL/kg (in the group treated with the drug combination, the two drugs were administered individually at an interval of 4 hours), and the administration was performed by oral gavage (p.o.) every day for 4 weeks. The tumor volume and tumor weight were measured and recorded by IVIS bioluminescence.
The anti-tumor effect was evaluated by measuring the bioluminescence value, which reflects the tumor volume. The relative bioluminescence value (RB) was calculated by the measured average bioluminescence value, RB=Bt/B0, wherein B0 is the average bioluminescence value measured at the time of grouping for administration (i.e., Day 0); Bt is the average bioluminescence value measured on Day t. The anti-tumor efficacy was evaluated by tumor growth inhibition TGIfluorescence (%) and T/Cfluorescence (%). The equations for calculation are as follows: T/Cfluorescence(%)=TRB/CRB×100%; TGIfluorescence(%)=100%−T/Cfluorescence(%)
wherein TRB and CRB are respectively the relative fluorescence values (RB) of the treatment group and vehicle group.
The anti-tumor efficacy was evaluated by TGIfluorescence% or T/Cfluorescence%.
The anti-tumor effect was evaluated by tumor weight according to a method same as that described in Example 1.
(3) The Criteria for Determining Synergism were the Same as in Example 1.

[2] = test system: human hepatoma Hep3B cells; assay: In vivo efficacy on subcutaneous xenograft of human hepatoma Hep3B cells in NU/NU nude mice; conditions: compound 1.5 mg/kg, Sorafenib 30 mg/kg, combination 1.5 + 30 mg/kg; for Tumor volume (mm^3) Day 0: Day 0, at grouping (baseline)
Description: (§5) This example aimed to evaluate the in vivo efficacy and tolerability of the pharmaceutical combination of the present invention in a NU/NU nude mouse model with human hepatoma Hep3B cell subcutaneous xenografts.
as §1, with “Hep3B” for “Hep3B-luc”, “week.” for “week. When cell saturation was 80-90%, the number met the requirement, and the cells were harvested and counted.”
0.2 mL of a cell suspension (PBS:Matrigel=1:1) containing 1×10^6 Hep3B was inoculated subcutaneously into the right flank of each mouse. After the inoculated tumor reached an average size in the range of 100-200 mm^3, the grouping of animals was performed.
as §2, §3, §4
(§6) Mice bearing a tumor having a volume of 100-200 mm^3 were selected, and randomized into groups (8 mice per group). The dosing volume was 10 mL/kg (in the group treated with the drug combination, the two drugs were administered individually at an interval of 4 hours), and the administration was performed by oral gavage (p.o.) every day for 20 days. The tumor volume, body weight of the animals and tumor weight were measured.
(1) The Anti-Tumor Effect was Evaluated by Measuring the Tumor Volume.
The equation for calculating the tumor volume is as follows: V=0.5a×b^2, wherein a and b respectively represent the major and minor diameters of a tumor.
RTV=Vt/V0; wherein V0 is the average tumor volume measured at the time of grouping for administration (i.e., Day 0); and Vt is the average tumor volume measured on Day t.
The anti-tumor efficacy was evaluated by tumor growth inhibition TGIvolume (%) and T/Cvolume (%). T/Cvolume (%)=TRTV/CRTV×100%; TGIvolume (%)=100%−T/Cvolume (%); wherein TRTV and CRTV are respectively RTVs of the treatment group and vehicle group at the end of the test.
TGItumor weight (%) and T/Ctumor weight (%) were calculated based on tumor weight, and were used to evaluate the tumor inhibitory effect. The equation for calculation is as follows: T/Ctumor weight(%)=WTt/WCt×100%; TGItumor weight(%)=100%−T/Ctumor weight(%);
WTt is the average tumor weight in the treatment group at the end of the test; and WCt is the average tumor weight in the vehicle group at the end of the test.
The synergism was evaluated by Jin's equation q=EA+B/(EA+EB−EA×EB), wherein EA+B represents the efficacy achieved by the combination, and EA or EB represents the efficacy achieved by individual administration. In the present invention, the efficacy indicated in the equation refers to TGI %. When q<0.85, the combination administration is considered to achieve an antagonistic effect; when q=0.85-1.15, the combination administration is considered to achieve an additive effect; and when q>1.15, the combination administration is considered to achieve a synergistic effect.

[3] = test system: mouse colon cancer MC38 cells expressing humanized PD-L1 (hPD-L1-MC38); assay: In vivo efficacy on subcutaneous xenograft of mouse colon cancer hPD-L1-MC38 cells in C57BL/6J mice; conditions: Day 28; compound 1.5 mg/kg p.o. every day, Tecentriq 10 mg/kg i.p. once every 2 days, combination 1.5 + 10 mg/kg
Description: This example aimed to evaluate the in vivo efficacy of the pharmaceutical combination of the present invention in a C57BL/6J mouse model with subcutaneous xenograft of mouse colon cancer hPD-L1-MC38 cells expressing humanized PD-L1.
hPD-L1-MC38 cells were cultured as a monolayer in vitro, and the culture conditions were 1640 culture medium supplemented with 10% Fetal Bovine Serum, and incubation in an incubator at 37° C. and 5% CO2. The cells were subcultured by treatment with routine trypsin-EDTA digestion three times a week.
0.1 mL of a PBS resuspension containing 2×10^5 hPD-L1-MC38 cells was inoculated subcutaneously at the right scapula of each mouse, and the grouping of animals was performed on the day of inoculation.
as §2, §3
An appropriate amount of the hPD-L1 inhibitor (Atezolizumab, trade name: Tecentriq® purchased from Roche Corporation, WHO Pharmaceutical Information (International Nonproprietary Name for Pharmaceutical Substances), Recommended INN: List 74, Vol. 29, No. 3, 2015 (see page 387)) was taken, physiological saline was added to obtain a solution of Tecentriq® at a concentration of 1 mg/mL.
C57BL/6J mice were inoculated with hPD-L1-MC38 cells, randomized into groups (8 mice per group), and treated by administration on the same day of the inoculation. The dosing volume was 10 mL/kg (in the group treated with the drug combination, the two drugs were administered individually at an interval of 4 hours). The 4′-thionucleoside phosphamide derivative compound in the present invention was administered by oral gavage (p.o.) every day for 4 weeks, and Tecentriq was administered intraperitoneally (i.p.) once every 2 days for 4 weeks. The tumor weight was measured.
The anti-tumor effect was evaluated by the measured tumor weight, and the method of measuring tumor weight and its evaluation were the same as those described in Example 1.

[4] = Tolerability by body weight change of Hep3B cell tumor-bearing NU/NU nude mice; assay type: in vivo, mouse
Description: as §5, §6
(2) The Animal's Tolerance to a Drug was Evaluated by Animal Body Weight Change.
The method for calculating the animal body weight change (%) is as follows: (Wt−W0)/W0×100%; W0: the animal's body weight at the time of grouping for administration (i.e., Day 0); Wt: the animal's body weight on day t of the test.
Body weight change in the animals tested serve as a reference indicator for determining drug tolerance.

Q: For CC(C)OC(=O)C(C)NP(=O)(OCC1SC(n2ccc(N)nc2=O)C(F)C1O)Oc1ccccc1 (centres unmarked), which “The average bioluminescence value of tumor (photons/sec) Day 0” value [1] is on record?
A: Its value is 1.09E+8 photons/sec.

Q: And the “T/Cfluorescence (%)” value [1]?
A: The value was 103.43%.

Q: And the “T/Ctumor weight (%)” value [1]?
A: Its value is 77.93%.

Q: And the “TGIfluorescence (%)” value [1]?
A: The value was −3.43%.

Q: And the “TGItumor weight (%)” value [1]?
A: The value was 22.07%.

Q: And the “The average bioluminescence value of tumor (photons/sec) Day 28” value [1]?
A: Its value is 2.41E+10 photons/sec.

Q: What about the “Tumor weight” value [1] of the same compound?
A: Its value is 3.46 g and 3.46 ± 1.17 g.

Q: And the “Tumor volume (mm^3) Day 0” value [2]?
A: Its value is 137.67 ± 7.75 mm^3.

Q: And the “T/Ctumor weight (%)” value ([2]; Day 20, p.o. every day)?
A: The value was 61.02%.

Q: What about the “T/Cvolume (%)” value ([2]; Day 20, p.o. every day) of the same compound?
A: The value was 65.25%.

Q: What about the “TGItumor weight (%)” value ([2]; Day 20, p.o. every day) of the same compound?
A: The value was 38.98%.

Q: What about the “TGIvolume (%)” value ([2]; Day 20, p.o. every day) of the same compound?
A: Its value is 34.75%.

Q: What about the “Tumor weight” value ([2]; Day 20, p.o. every day) of the same compound?
A: Its value is 1.19 g and 1.19 ± 0.25 g.

Q: And the “T/Ctumor weight (%)” value [3]?
A: The value was 95.16%.

Q: What about the “TGItumor weight (%)” value [3] of the same compound?
A: Its value is 4.84%.

Q: And the “Tumor weight” value [3]?
A: Its value is 3.54 g and 3.54 ± 0.41 g.

Q: Which results are given for CNC(=O)c1cc(Oc2ccc(NC(=O)Nc3ccc(Cl)c(C(F)(F)F)c3)cc2)ccn1 [Sorafenib]?
A: The average bioluminescence value of tumor (photons/sec) Day 0 [1]: 1.09E+8 photons/sec; T/Cfluorescence (%) [1]: 64.81%; T/Ctumor weight (%) [1]: 31.53%; TGIfluorescence (%) [1]: 35.19%; TGItumor weight (%) [1]: 68.47%; The average bioluminescence value of tumor (photons/sec) Day 28 [1]: 1.51E+10 photons/sec; Tumor weight [1]: 1.40 g and 1.40 ± 0.82 g; Tumor volume (mm^3) Day 0 [2]: 137.77 ± 7.92 mm^3; T/Ctumor weight (%) ([2]; Day 20, p.o. every day): 38.97%; T/Cvolume (%) ([2]; Day 20, p.o. every day): 42.86%; TGItumor weight (%) ([2]; Day 20, p.o. every day): 61.03%; TGIvolume (%) ([2]; Day 20, p.o. every day): 57.14%; Tumor volume (mm^3) Day 20 ([2]; Day 20, p.o. every day): 912.68 mm^3 and 912.68 ± 173.12 mm^3; Tumor weight ([2]; Day 20, p.o. every day): 0.76 g and 0.76 ± 0.17 g; weight loss ([4]; Day 20, Sorafenib 30 mg/kg p.o. every day, printed as loss): 8.31%; Body weight change (%) ([4]; Day 20, p.o. every day, compound 1.5 mg/kg, Sorafenib 30 mg/kg, combination 1.5 + 30 mg/kg, error range ±0.2%): −8.31%

Q: For Atezolizumab [Tecentriq], which “T/Ctumor weight (%)” value [3] is on record?
A: The value was 73.12%.

Q: What about the “TGItumor weight (%)” value [3] of the same compound?
A: Its value is 26.88%.

Q: And the “Tumor weight” value [3]?
A: Its value is 2.72 g and 2.72 ± 0.44 g.
